Measurements taken from patent publication US8809373B2, “Pyridine non-classical cannabinoid compounds and related methods of use” (priority 2008, dated 2014).

Experiments:
[1] = test system: glioblastoma brain cancer cell line LN-229; assay: Cytotoxicity assay (CCK8 viability), LN-229; assay type: cell-based; conditions: Homo sapiens, LN-229 cells, 18 hours drug incubation, 1% FBS media
Experimental: (§1) Cytoxocity assay: Cells were seeded on a 96 well polystyrene plate in full serum media at a density of 75,000 cells per milliliter, 100 μL per well. Plates were incubated at 37° C. and 5% CO2 for 24 hours to allow cell attachment. Drug solutions were prepared in DMSO at 100× concentration and mixed 1:100 in 1% FBS media to yield the desired concentration. Drug-media mixtures were vortexed immediately prior to administration to cells. Full serum media was removed and replaced with drug-media mixtures and incubated for 18 hours. 10 μL of Cell Counting Kit 8 (CCK8, Dojindo# CK04-11) was added to each well to colormetrically assess viability. After 2-4 hours of incubation with the CCK8 dye, absorbance was read at 450 nm by a BioTek Synergy 2 plate reader.
(§2) The cytotoxicity of selected compounds against the glioblastoma brain cancer cell line LN-229 is depicted in Table 1.

[2] = test system: glioblastoma brain cancer cell line DBTRG05MG; assay: Cytotoxicity assay (CCK8 viability), DBTRG05MG; assay type: cell-based; conditions: Homo sapiens, DBTRG-05MG, DBTRG05MG cells, 18 hours drug incubation, 1% FBS media
Experimental: as §1, §2

| SMILES | EC50 [1] [µM] | EC50 [2] [µM] |
| --- | --- | --- |
| CC(C)(c1cc(O)c(-c2cc(Cl)cc(Cl)c2)c(O)n1)C1CCCCC1 [Compound 8b, 6-(2-Cyclohexylpropan-2-yl)-3-(3,5-dichlorophenyl)pyridine-2,4-diol] | 5.9 | 9.8 |
| CC(C)(c1ccccc1)c1cc(O)c(-c2cc(Cl)cc(Cl)c2)c(O)n1 [Compound 8c, 3-(3,5-Dichlorophenyl)-6-(2-phenylpropan-2-yl)pyridine-2,4-diol] | 29.2 | 33.6 |
| CCCCCCC(C)(C)c1cc(O)c(-c2cc(Cl)cc(Cl)c2)c(O)n1 [Compound 8e, 3-(3,5-dichlorophenyl)-6-(2-methyloctan-2-yl)pyridine-2,4-diol] | 1.6 | 4.1 |
| Cc1cccc(-c2c(O)cc(C(C)(C)C3CCCCC3)nc2O)c1 [Compound 8f, 6-(2-Cyclohexylpropan-2-yl)-3-m-tolylpyridine-2,4-diol] | 71.1 |  |
| CCCCCCC(C)(C)c1nc(O)c(-c2cccc(C)c2)c(O)n1 [Compound 8h, 2-(2-Methyloctan-2-yl)-5-m-tolylpyrimidine-4,6-diol] | 24.6 | 29.2 |
| CCCCCCC(C)(C)c1cc(O)c(-c2ccccc2)c(O)n1 [Compound 8j, 6-(2-Methyloctan-2-yl)-3-phenylpyridine-2,4-diol] | 52.6 | 55.7 |
| CCCCCCC(C)(C)c1cc(O)c(-c2cccc(OC)c2)c(O)n1 [Compound 8m, 3-(3-Methoxyphenyl)-6-(2-methyloctan-2-yl)pyridine-2,4-diol] | 41.7 | 56 |
| CCCCCCC(C)(C)c1cc(O)c(Cc2ccccc2)c(O)n1 [Compound 8n, 3-Benzyl-6-(2-methyloctan-2-yl)pyridine-2,4-diol] | 13.1 | 25.2 |
